In DBAASP:
≈ marks a conversion by molar mass, not a printed value. Values belong to the compound of their own block, whether it stands above or below them.

Assays:
Test in all cases: ≥ marks a high value that may be exact or a test limit, other limits are often not marked, values filed in µg/mL are converted to µM
[1] = test system: Aspergillus fumigatus IP1025-70
Escherichia coli IP76-24 = test system: Escherichia coli IP76-24
[2] = test system: Nocardia brasiliensis IP16-80
[3] = test system: Aeromonas caviae IP67-16T
[4] = test system: Trichophyton rubrum IP2043-92
[5] = test system: Candida albicans IP884-65
[6] = test system: Trichophyton simii J43 IP903-65
[7] = test system: Aspergillus niger IP218-53
[8] = test system: Saccharomyces cerevisiae IP118079
[9] = test system: Cryptococcus neoformans IP960-67
Microsporum canis IP1194 = test system: Microsporum canis IP1194
[10] = test system: Enterococcus faecalis IP103214
[11] = test system: Cryptococcus neoformans IP962-67
[12] = test system: Candida albicans IP886-65
[13] = test system: Staphylococcus aureus IP76-25
[14] = test system: Trichophyton mentagrophytes IP877-71
[15] = test system: Trichophyton simii IP1063-74
[16] = test system: Enterococcus faecalis WHO 14
[17] = test system: Acinetobacter calcoaceticus ATCC 2305-5
[18] = test system: Micrococcus luteus ATCC 4698
[19] = test system: Bacillus subtilis ICTA-07
[20] = test system: Yersinia enterocolitica ATCC 9610
[21] = test system: Pseudomonas aeruginosa ATCC 27853
[22] = test system: Bacillus subtilis PCI 219
[23] = test system: Pseudomonas aeruginosa U-31
[24] = test system: Escherichia coli NIHJ JC-2
[25] = test system: Staphylococcus aureus FDA 209P
[26] = test system: Bacillus anthracis Sterne 34F2
[27] = test system: Bacillus subtilis var. niger ATCC 9372
Escherichia coli K91BK = test system: Escherichia coli K91BK
Fusarium oxysporum = test system: Fusarium oxysporum
Carnobacterium mobile = test system: Carnobacterium mobile
[28] = test system: Pseudomonas aeruginosa KCTC 1637
Proteus vulgaris = test system: Proteus vulgaris
[29] = test system: Staphylococcus aureus KCTC 1621
[30] = test system: Bacillus subtilis KCTC 1918
[31] = test system: Bacillus megaterium KCTC 1096
[32] = test system: Escherichia coli KCTC 1682

MIC [1]: ≥ 70 µM | MIC (Escherichia coli IP76-24): ≥ 35 µM | MIC [2]: ≥ 40 µM | MIC [3]: ≥ 35 µM | MIC [4]: 20 µM (≈ 56.8 µg/mL) | MIC [5]: 10 µM (≈ 28.4 µg/mL) | MIC [6]: 20 µM (≈ 56.8 µg/mL) | MIC [7]: 30 µM (≈ 85.2 µg/mL) | MIC [8]: 5 µM (≈ 14.2 µg/mL) | MIC [9]: 1 µM (≈ 2.84 µg/mL) | MIC (Microsporum canis IP1194): 15 µM (≈ 42.6 µg/mL) | MIC [10]: ≥ 40 µM | MIC [11]: 1 µM (≈ 2.84 µg/mL) | MIC [12]: 10 µM (≈ 28.4 µg/mL) | MIC [13]: 2 µM (≈ 5.68 µg/mL) | MIC [14]: 20 µM (≈ 56.8 µg/mL) | MIC [15]: 30 µM (≈ 85.2 µg/mL)
Compound: CC[C@H](C)[C@H](NC(=O)[C@H](CCCCN)NC(=O)[C@H](CO)NC(=O)[C@H](Cc1c[nH]c2ccccc12)NC(=O)[C@H](CC(C)C)NC(=O)CN)C(=O)N[C@@H](CCCCN)C(=O)N[C@H](C(=O)N[C@@H](C)C(=O)NCC(=O)N[C@@H](CCCCN)C(=O)N[C@@H](CO)C(=O)N[C@H](C(=O)N[C@@H](C)C(=O)N[C@@H](CCCCN)C(=O)N[C@@H](C)C(=O)N[C@@H](C)C(=O)N[C@@H](C)C(=O)N[C@@H](CCCCN)C(=O)N[C@@H](C)C(=O)N[C@@H](C)C(=O)N[C@H](C(=O)N[C@@H](CCCCN)C(=O)N[C@@H](C)C(=O)N[C@H](C(=O)N[C@H](C(=O)N[C@@H](CC(N)=O)C(=O)N[C@@H](C)C(=O)N[C@H](C(=O)O)C(C)C)[C@@H](C)O)C(C)C)C(C)C)C(C)C)[C@@H](C)O [GLWSKIKTAGKSVAKAAAKAAVKAVTNAV]

MIC [16]: ≥ 65 µM | MIC [17]: 27 µM (≈ 199 µg/mL) | MIC [18]: 27 µM (≈ 199 µg/mL) | MIC [19]: 30 µM (≈ 221 µg/mL) | MIC [20]: ≥ 46 µM | MIC [21]: 54 µM (≈ 398 µg/mL)
Compound: CSCC[C@@H]1NC(=O)[C@H](Cc2c[nH]c3ccccc23)NC(=O)[C@H](C)NC(=O)[C@H](Cc2ccc(O)cc2)NC(=O)[C@@H]2CSSC[C@@H]3NC(=O)[C@H](CO)NC(=O)[C@H](Cc4ccc(O)cc4)NC(=O)[C@H](CCCCN)NC(=O)[C@@H](NC(=O)CNC(=O)[C@H](CC(=O)O)NC(=O)[C@H](CC(N)=O)NC(=O)CNC(=O)[C@@H](NC(=O)[C@H](CC(C)C)NC(=O)[C@H](Cc4ccc(O)cc4)NC(=O)CNC(=O)[C@H](CC(=O)O)NC(=O)[C@@H](N)CCCCN)C(C)C)CSSC[C@@H](C(=O)NCC(=O)N[C@@H](CCCN=C(N)N)C(N)=O)NC(=O)[C@H](CCCN=C(N)N)NC(=O)[C@H](CC(N)=O)NC(=O)[C@H]([C@@H](C)O)NC(=O)[C@H](C)NC(=O)[C@H](CCCN=C(N)N)NC(=O)[C@H](CC(N)=O)NC(=O)[C@H](Cc4c[nH]c5ccccc45)NC(=O)[C@H]([C@@H](C)O)NC(=O)[C@H](CCCCN)NC(=O)[C@H](C(C)C)NC(=O)[C@H](Cc4c[nH]c5ccccc45)NC(=O)[C@H](CC(N)=O)NC(=O)[C@@H]4CCCN4C(=O)[C@H](CCSC)NC(=O)[C@H](CO)NC(=O)[C@H](Cc4ccc(O)cc4)NC(=O)[C@@H]4CSSC[C@H](NC(=O)[C@H](CCC(=O)O)NC(=O)[C@H](CC(N)=O)NC(=O)[C@H](C)NC(=O)[C@H](CSSC[C@H](NC(=O)[C@H](C)NC1=O)C(=O)N[C@@H](Cc1ccc(O)cc1)C(=O)N4)NC(=O)[C@H](Cc1ccc(O)cc1)NC(=O)[C@H]([C@@H](C)O)NC(=O)CNC(=O)[C@@H]1CCCN1C(=O)[C@H](CCCN=C(N)N)NC(=O)[C@H]([C@@H](C)O)NC(=O)[C@H](Cc1ccccc1)NC3=O)C(=O)N[C@@H](CO)C(=O)N[C@@H](CCCN=C(N)N)C(=O)N[C@@H](C(C)C)C(=O)N[C@@H](CCCCN)C(=O)NCC(=O)N[C@@H](CCCCN)C(=O)N[C@@H](CC(=O)O)C(=O)NCC(=O)N[C@@H](Cc1ccc(O)cc1)C(=O)N2 [KDGYLVGNDGCKYSCFTRPGTYCANECSRVKGKDGYCYAWMACYCYSMPNWVKTWNRATNRCGR]

Second part, the compound before the results:

Compound: CC(C)C[C@H](NC(=O)[C@H](CC(C)C)NC(=O)[C@H](CC(C)C)NC(=O)[C@H](CCCCN)NC(=O)[C@H](CC(C)C)NC(=O)[C@H](CC(C)C)NC(=O)[C@H](CCCCN)NC(=O)[C@H](CC(C)C)NC(=O)[C@H](Cc1c[nH]c2ccccc12)NC(=O)[C@H](CC(C)C)NC(=O)[C@H](CCCCN)NC(=O)[C@H](CC(C)C)NC(=O)[C@H](CC(C)C)NC(=O)[C@H](CC(C)C)NC(=O)[C@H](CCCCN)NC(=O)[C@H](CC(C)C)NC(=O)[C@H](CC(C)C)NC(=O)[C@@H](N)CCCCN)C(=O)O [KLLKLLLKLWLKLLKLLL]
MIC [22]: ≥ 45.4 µM | MIC [23]: ≥ 45.4 µM | MIC [24]: ≥ 45.4 µM | MIC [25]: ≥ 45.4 µM

Compound: CC(=O)N[C@@H](CCCCN)C(=O)N[C@@H](Cc1c[nH]c2ccccc12)C(=O)N[C@@H](CCCCN)C(=O)N[C@@H](CCCCN)C(=O)N[C@@H](CC(C)C)C(=O)N1CCC[C@H]1C(=O)N[C@@H](CCCCN)C(=O)N[C@@H](CCCCN)C(=O)N[C@@H](CC(C)C)C(=O)N[C@@H](CC(C)C)C(=O)N[C@@H](CCCCN)C(=O)N[C@@H](CC(C)C)C(=O)N[C@@H](CC(C)C)C(N)=O [KWKKLPKKLLKLL]
MIC [26]: ≥ 100 µM | MIC [27]: 8.84 µM (≈ 14.8 µg/mL) | MIC (Escherichia coli K91BK): ≥ 100 µM

Compound: CSCC[C@H](N)C(=O)N[C@@H](C)C(=O)N[C@@H](CO)C(=O)N[C@@H](CCCN=C(N)N)C(=O)N[C@@H](C)C(=O)N[C@@H](C)C(=O)NCC(=O)N[C@@H](CC(C)C)C(=O)N[C@@H](C)C(=O)N[C@@H](C)C(=O)N[C@@H](CCCN=C(N)N)C(=O)N[C@@H](CC(C)C)C(=O)N[C@@H](C)C(=O)N[C@@H](CCCN=C(N)N)C(=O)N[C@@H](CC(C)C)C(=O)N[C@@H](C)C(=O)N[C@@H](CC(C)C)C(=O)N[C@@H](CCCN=C(N)N)C(=O)N[C@@H](C)C(=O)N[C@@H](CC(C)C)C(=O)O [MASRAAGLAARLARLALRAL]
MIC (Fusarium oxysporum): 1 µM (≈ 2.05 µg/mL) | MIC (Carnobacterium mobile): 0.05 µM (≈ 0.103 µg/mL)

Compound: CC[C@H](C)[C@H](NC(=O)[C@H](CCCCN)NC(=O)[C@H](CCCCN)NC(=O)[C@@H](N)Cc1c[nH]c2ccccc12)C(=O)N1CCC[C@H]1C(=O)N[C@@H](CCCCN)C(=O)N[C@@H](Cc1ccccc1)C(=O)N[C@@H](CC(C)C)C(=O)N[C@@H](Cc1cnc[nH]1)C(=O)N[C@@H](CC(C)C)C(=O)N[C@@H](CC(C)C)C(=O)N[C@@H](CCCCN)C(=O)N[C@@H](CCCCN)C(=O)N[C@@H](Cc1ccccc1)C(N)=O [WKKIPKFLHLLKKF]
MIC [28]: 3.12 µM (≈ 5.7 µg/mL) | MIC (Proteus vulgaris): 12.5 µM (≈ 22.8 µg/mL) | MIC [29]: 3.12 µM (≈ 5.7 µg/mL) | MIC [30]: 0.78 µM (≈ 1.42 µg/mL) | MIC [31]: 1.56 µM (≈ 2.85 µg/mL) | MIC [32]: 6.25 µM (≈ 11.4 µg/mL)
